“And” between values parts separate entries of the source, which are not always exact repeats. Identical values can stand only once.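 The compound was tested at five concentrations on cells cultured in 96-well plates, with a 48-hour exposure period. GI50 is the concentration that inhibits growth by half. TGI marks complete inhibition of growth.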
Key:
Test in all cases: NCI anticancer screen, dose series, 48 h
[1] = system: OVCAR-5 ovarian
[2] = system: IGROV1 ovarian
[3] = system: COLO 205 colon
[4] = system: RXF 393 renal
[5] = system: TK-10 renal
[6] = system: KM12 colon
[7] = system: EKVX NSCLC
[8] = system: SK-MEL-28 melanoma
[9] = system: UO-31 renal
[10] = system: SK-MEL-2 melanoma

Row | SMILES | TGI [1] [µM] | TGI [2] | TGI [3] | TGI [4] | TGI [5] [µM] | TGI [6] | TGI [7] | TGI [8] [µM] | TGI [9] | TGI [10] | GI50 [1] [µM] | GI50 [2] [µM] | GI50 [3] [µM] | GI50 [4] [µM] | GI50 [5] [µM] | GI50 [6] [µM] | GI50 [7] [µM] | GI50 [8] [µM] | GI50 [9] [µM] | GI50 [10] [µM]
1 | Cc1cccc(C)c1NC(=O)C(=O)Nn1c(NN)nc2ccccc2c1=O | > 100 | > 100 µM | > 100 µM | > 100 µM | > 100 | > 100 µM | > 100 µM | > 100 | > 100 µM | > 100 µM |  |  |  |  |  |  |  |  |  | 
2 | Cn1cc2ccccc2c1-c1nc(F)nc(OCC(=O)[C@H]2CCC3[C@@H]4CCC5=CC(=O)CC[C@]5(C)C4[C@@H](O)C[C@@]32C)n1 (stereo not given in full) | > 73.7 | 22.9 µM | 40.1 µM | 14.5 µM | 47.9 | 33.3 µM | 58.8 µM | 31.2 | 37.8 µM | 31.3 µM |  |  |  |  |  |  |  |  |  | 
3 | C=C(c1ccccc1)[C@@]1(O)CC[C@@H]1N(CC#N)Cc1ccccc1 | > 100 | 72.6 µM | 30.4 µM | 34.6 µM | 35.5 | > 71.4 µM | > 88.9 µM | 28.8 | 67.4 µM | 53.1 µM |  |  |  |  |  |  |  |  |  | 
4 | COc1cc2c(cc1OC)C13CCN4CC5CCOC6CC(=O)N2C1C6C5CC43 (stereo not given) | > 100 | > 100 µM | > 100 µM | > 100 µM | > 100 | > 100 µM | > 100 µM | > 100 | > 100 µM | > 100 µM |  |  |  |  |  |  |  |  |  | 
5 | COc1ccc(-c2ccc(-c3ccc(C(=N)N)o3)o2)cc1 | 5.88 | 7.03 µM | 2.94 µM | 8.81 µM | 21 | 6.73 µM | 14.5 µM | 3.66 | 3.79 µM | 21.7 µM | 2.42 | 1.73 | 1.25 | 2.12 | 7.97 | 0.585 | 2.79 | 1.67 | 1.72 | 5.71
6 | NCCCNCCCCNC(=O)C(O)NC(=O)CCCCCCN=C(N)N (stereo not given) | > 5000 | 750 µM and > 5000 µM | 750 µM and > 5000 µM | 750 µM and > 5000 µM | > 5000 | 619 µM and > 5000 µM | 742 µM and > 5000 µM | > 5000 | 619 µM and > 5000 µM | 750 µM and 3420 µM | > 3010 | 2620 | 1580 | 3480 | > 4030 | 1360 | 4980 | > 3670 | 2980 | 2040
7 | O=C1c2ccccc2-c2c1c1ccccc1c(=O)n2CCCn1ccnc1 | 53.6 | > 100 µM | > 100 µM | > 100 µM | 6.83 | 5.95 µM | > 100 µM | > 100 | > 100 µM | > 100 µM | 3.05 | 2.86 | 5.41 | 6.15 | 1.97 | 1.94 | 9.09 | 3.47 | 0.359 | 7.78
8 | COc1cc(-c2nc(SCCC(C)C)nc(Nc3ccc(S(N)(=O)=O)cc3)c2C#N)cc(OC)c1OC | > 100 | > 100 µM | 5.08 µM | 3.97 µM | > 100 | 5.56 µM | > 100 µM | > 100 | > 100 µM | 6.16 µM | 3.84 | 3.39 | 2.06 | 1.83 | 3.5 | 2.2 | 3.42 | 4.04 | 1.82 | 2.47

Source: PubChem BioAssay (NCI)
